Results published in patent publication US9637491B2, “Pyrazolo[4,3-D]pyrimidines as kinase inhibitors” (Origenis GmbH, priority 2012, dated 2017).

Target: T1, SYK kinase (Homo sapiens, UniProt P43405)
T1 construct: purchased Invitrogen, Carlsbad
Test: SYK assay (OMNIA Kinase Assay, Invitrogen)
Assay type: biochemical
Details: SYK Activities; 1 mM ATP, 10 μM Omnia Peptide Substrate Tyr 7, 30° C.
Method in brief: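 Continuous-read fluorescence kinase assay: SOX-labelled Tyr 7 peptide (10 μM) with 1 mM ATP and 0.2 mM DTT, 30° C, reaction started by adding SYK. Fluorescence (ex 360/em 485 nm) read every 30 s for 30 min. IC50 from sigmoidal fit of reaction velocity versus inhibitor concentration.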

Row | Structure (SMILES) | IC50 [nM]
1 | Cn1ccc(-c2nc(Nc3ccc(N4CCOCC4)cc3)c3[nH]ncc3n2)n1 [Example 175, 5-(1-methyl-1H-pyrazol-3-yl)-N-(4-morpholinophenyl)-1H-pyrazolo[4,3-d]pyrimidin-7-amine] | 100 to 1000
2 | Cn1cc(-c2nc(Nc3ccc(N4CCOCC4)cc3)c3[nH]ncc3n2)cn1 [Example 121, 5-(1-methyl-1H-pyrazol-4-yl)-N-(4-morpholinophenyl)-1H-pyrazolo[4,3-d]pyrimidin-7-amine] | 10 to 100
3 | CN1CCN(c2ccc(Nc3nc(-c4ccoc4)nc4cn[nH]c34)cn2)CC1 [Example 108, 5-(furan-3-yl)-N-(6-(4-methylpiperazin-1-yl)pyridin-3-yl)-1H-pyrazolo[4,3-d]pyrimidin-7-amine] | 100 to 1000
4 | COc1cc(Nc2nc(-c3cccs3)nc3cn[nH]c23)ccc1N1CCOCC1 [Example 37, N-(3-methoxy-4-morpholinophenyl)-5-(thiophen-2-yl)-1H-pyrazolo[4,3-d]pyrimidin-7-amine] | 100 to 1000
5 | CC(=O)N1CCC(n2cc(Nc3nc(-c4ccc5cn[nH]c5c4)nc4cn[nH]c34)cn2)CC1 [Example 133, 1-(4-(4-((5-(1H-indazol-6-yl)-1H-pyrazolo[4,3-d]pyrimidin-7-yl)amino)-1H-pyrazol-1-yl)piperidin-1-yl)ethan-1-one] | 10 to 100
6 | Fc1cc(Nc2nc(C3CC3)nc3cn[nH]c23)ccc1N1CCOCC1 [Example 34, 5-cyclopropyl-N-(3-fluoro-4-morpholinophenyl)-1H-pyrazolo[4,3-d]pyrimidin-7-amine] | 100 to 1000
7 | CC(=O)N1CCC(n2cc(Nc3nc(-c4cccc(NS(C)(=O)=O)c4)nc4cn[nH]c34)cn2)CC1 [Example 266, N-(3-(7-((1-(1-acetylpiperidin-4-yl)-1H-pyrazol-4-yl)amino)-1H-pyrazolo[4,3-d]pyrimidin-5-yl)phenyl)methanesulfonamide] | 100 to 1000
8 | COCCn1cc(Nc2nc(-c3cccc(NS(C)(=O)=O)c3)nc3cn[nH]c23)cn1 [Example 265, N-(3-(7-((1-(2-methoxyethyl)-1H-pyrazol-4-yl)amino)-1H-pyrazolo[4,3-d]pyrimidin-5-yl)phenyl)methanesulfonamide] | 100 to 1000
9 | CC(=O)N1CCN(c2ccc(Nc3nc(C4(C)CC4)nc4cn[nH]c34)cc2)CC1 [Example 100, 1-(4-(4-((5-(1-methylcyclopropyl)-1H-pyrazolo[4,3-d]pyrimidin-7-yl)amino)phenyl)piperazin-1-yl)ethan-1-one] | 100 to 1000
10 | CS(=O)(=O)Nc1cccc(-c2nc(Nc3cnn(CCO)c3)c3[nH]ncc3n2)c1 [Example 262, N-(3-(7-((1-(2-hydroxyethyl)-1H-pyrazol-4-yl)amino)-1H-pyrazolo[4,3-d]pyrimidin-5-yl)phenyl)methanesulfonamide] | 100 to 1000
11 | CC(C)(C)n1cc(Nc2nc(-c3ccco3)nc3cn[nH]c23)cn1 [Example 212, N-(1-(tert-butyl)-1H-pyrazol-4-yl)-5-(furan-2-yl)-1H-pyrazolo[4,3-d]pyrimidin-7-amine] | 10 to 100
12 | CC1CC1c1nc(Nc2ccc(N3CCOCC3)cc2)c2[nH]ncc2n1 (stereo not shown) [Example 101, 5-(2-methylcyclopropyl)-N-(4-morpholinophenyl)-1H-pyrazolo[4,3-d]pyrimidin-7-amine] | 10 to 100
13 | CN1CCC(n2cc(Nc3nc(-c4ccco4)nc4cn[nH]c34)cn2)CC1 [Example 198, 5-(furan-2-yl)-N-(1-(1-methylpiperidin-4-yl)-1H-pyrazol-4-yl)-1H-pyrazolo[4,3-d]pyrimidin-7-amine] | < 10
14 | CC(=O)N1CCN(c2ccc(Nc3nc(-c4ccc5cn[nH]c5c4)nc4cn[nH]c34)cc2)CC1 [Example 50, 1-(4-(4-((5-(1H-indazol-6-yl)-1H-pyrazolo[4,3-d]pyrimidin-7-yl)amino)phenyl)piperazin-1-yl)ethan-1-one] | < 10
15 | CC(=O)N1CCN(c2ccc(Nc3nc(C4CC4C)nc4cn[nH]c34)cc2)CC1 (stereo not shown) [Example 102, 1-(4-(4-((5-(2-methylcyclopropyl)-1H-pyrazolo[4,3-d]pyrimidin-7-yl)amino)phenyl)piperazin-1-yl)ethan-1-one] | 100 to 1000
16 | COCCCn1cc(Nc2nc(-c3ncco3)nc3cn[nH]c23)cn1 [Example 251, N-(1-(3-methoxypropyl)-1H-pyrazol-4-yl)-5-(oxazol-2-yl)-1H-pyrazolo[4,3-d]pyrimidin-7-amine] | 100 to 1000
17 | CC(=O)N1CCC(n2cc(Nc3nc(C4CC4)nc4cn[nH]c34)cn2)CC1 [Example 204, 1-(4-(4-((5-cyclopropyl-1H-pyrazolo[4,3-d]pyrimidin-7-yl)amino)-1H-pyrazol-1-yl)piperidin-1-yl)ethan-1-one] | < 10
18 | COCCCn1cc(Nc2nc(C3CC3)nc3cn[nH]c23)cn1 [Example 230, 5-cyclopropyl-N-(1-(3-methoxypropyl)-1H-pyrazol-4-yl)-1H-pyrazolo[4,3-d]pyrimidin-7-amine] | 10 to 100
19 | COCCn1cc(Nc2nc(C3CC3)nc3cn[nH]c23)cn1 [Example 194, 5-cyclopropyl-N-(1-(2-methoxyethyl)-1H-pyrazol-4-yl)-1H-pyrazolo[4,3-d]pyrimidin-7-amine] | 100 to 1000
20 | CC(C)n1cc(Nc2nc(-c3ccco3)nc3cn[nH]c23)cn1 [Example 214, 5-(furan-2-yl)-N-(1-isopropyl-1H-pyrazol-4-yl)-1H-pyrazolo[4,3-d]pyrimidin-7-amine] | < 10
21 | CC1CC1c1nc(Nc2cnn(C3CCOCC3)c2)c2[nH]ncc2n1 (stereo not shown) [Example 103, 5-(2-methylcyclopropyl)-N-(1-(tetrahydro-2H-pyran-4-yl)-1H-pyrazol-4-yl)-1H-pyrazolo[4,3-d]pyrimidin-7-amine] | 100 to 1000
22 | CC(C)(C)N1CCN(c2ccc(Nc3nc(-c4ccccc4F)nc4cn[nH]c34)cc2)CC1 [Example 23, N-(4-(4-(tert-butyl)piperazin-1-yl)phenyl)-5-(2-fluorophenyl)-1H-pyrazolo[4,3-d]pyrimidin-7-amine] | 100 to 1000
23 | CC(C)(C)N1CCC(n2cc(Nc3nc(C4CC4)nc4cn[nH]c34)cn2)CC1 [Example 328, N-(1-(1-(tert-butyl)piperidin-4-yl)-1H-pyrazol-4-yl)-5-cyclopropyl-1H-pyrazolo[4,3-d]pyrimidin-7-amine] | < 10
24 | O=C(c1ccc(Nc2nc(C3CC3)nc3cn[nH]c23)cc1F)N1CCOCC1 [Example 208, (4-((5-cyclopropyl-1H-pyrazolo[4,3-d]pyrimidin-7-yl)amino)-2-fluorophenyl)(morpholino)methanone] | 100 to 1000
25 | COc1cc(Nc2nc(-c3ccccc3F)nc3cn[nH]c23)ccc1N1CCOCC1 [Example 25, 5-(2-fluorophenyl)-N-(3-methoxy-4-morpholinophenyl)-1H-pyrazolo[4,3-d]pyrimidin-7-amine] | 10 to 100

The next lines start with the values.

Row | IC50 [nM] | Structure (SMILES)
26 | 100 to 1000 | COCCn1ncc(Nc2nc(-c3ccco3)nc3cn[nH]c23)c1F [Example 403, N-(5-fluoro-1-(2-methoxyethyl)-1H-pyrazol-4-yl)-5-(furan-2-yl)-1H-pyrazolo[4,3-d]pyrimidin-7-amine]
27 | 10 to 100 | FC(F)(F)Cn1cc(Nc2nc(-c3ccc4cn[nH]c4c3)nc3cn[nH]c23)cn1 [Example 517, 5-(1H-indazol-6-yl)-N-(1-(2,2,2-trifluoroethyl)-1H-pyrazol-4-yl)-1H-pyrazolo[4,3-d]pyrimidin-7-amine]
28 | 10 to 100 | NS(=O)(=O)c1cccc(-c2nc(Nc3ccc4c(c3)NC(=O)CCC4)c3[nH]ncc3n2)c1 [Example 525, 3-(7-((2-oxo-2,3,4,5-tetrahydro-1H-benzo[b]azepin-8-yl)amino)-1H-pyrazolo[4,3-d]pyrimidin-5-yl)benzenesulfonamide]
29 | 100 to 1000 | CN(C)C(=O)Cn1cc(Nc2nc(C3CCC3)nc3cn[nH]c23)cn1 [Example 461, 2-(4-((5-cyclobutyl-1H-pyrazolo[4,3-d]pyrimidin-7-yl)amino)-1H-pyrazol-1-yl)-N,N-dimethylacetamide]
30 | 100 to 1000 | CCCc1nc(Nc2ccc(N3CCOCC3)cc2)c2[nH]ncc2n1 [Example 386, N-(4-morpholinophenyl)-5-propyl-1H-pyrazolo[4,3-d]pyrimidin-7-amine]
31 | 10 to 100 | c1ccc2oc(-c3nc(Nc4cnn(C5CCOCC5)c4)c4[nH]ncc4n3)nc2c1 [Example 446, 5-(benzo[d]oxazol-2-yl)-N-(1-(tetrahydro-2H-pyran-4-yl)-1H-pyrazol-4-yl)-1H-pyrazolo[4,3-d]pyrimidin-7-amine]
32 | 10 to 100 | CC(C)n1cc(Nc2nc(-c3cccs3)nc3cn[nH]c23)cn1 [Example 431, N-(1-isopropyl-1H-pyrazol-4-yl)-5-(thiophen-2-yl)-1H-pyrazolo[4,3-d]pyrimidin-7-amine]
33 | 100 to 1000 | CS(=O)(=O)Nc1cccc(-c2nc(Nc3ccc4c(c3)NC(=O)CCC4)c3[nH]ncc3n2)c1 [Example 529, N-(3-(7-((2-oxo-2,3,4,5-tetrahydro-1H-benzo[b]azepin-8-yl)amino)-1H-pyrazolo[4,3-d]pyrimidin-5-yl)phenyl)methanesulfonamide]
34 | 10 to 100 | FCCn1cc(Nc2nc(-c3ccoc3)nc3cn[nH]c23)cn1 [Example 361, N-(1-(2-fluoroethyl)-1H-pyrazol-4-yl)-5-(furan-3-yl)-1H-pyrazolo[4,3-d]pyrimidin-7-amine]
35 | < 10 | c1nn(C2CCNC2)cc1Nc1nc(C2CCC2)nc2cn[nH]c12 (stereo not shown) [Example 462, 5-cyclobutyl-N-(1-(pyrrolidin-3-yl)-1H-pyrazol-4-yl)-1H-pyrazolo[4,3-d]pyrimidin-7-amine]
36 | 10 to 100 | c1nn(C2CCCOC2)cc1Nc1nc(-c2ccc3cn[nH]c3c2)nc2cn[nH]c12 (stereo not shown) [Example 505, 5-(1H-indazol-6-yl)-N-(1-(tetrahydro-2H-pyran-3-yl)-1H-pyrazol-4-yl)-1H-pyrazolo[4,3-d]pyrimidin-7-amine]
37 | 10 to 100 | CC(C)n1cc(-c2nc(Nc3ccc(N4CCOCC4)cc3)c3[nH]ncc3n2)cn1 [Example 421, 5-(1-isopropyl-1H-pyrazol-4-yl)-N-(4-morpholinophenyl)-1H-pyrazolo[4,3-d]pyrimidin-7-amine]
